{
  "source": "patent US20210340552A1",
  "about": "“High-Throughput Screening Platform for Longevity Genes and Anti-Aging Drugs” (The Regents of the University of California, priority 2018, published 2021)",
  "system": "yeast cells",
  "test": "Replicative lifespan (RLS) measurement with the DAP yeast strain and 96-well microfluidic device",
  "format": "cell-based, Saccharomyces cerevisiae",
  "description": "The IDS2GH or IDS2RH transformed yeast cells were cultured in YEPG [For 1 L medium: Bacto yeast extract (Difco 0127-17) (1%) 10 g, Bacto peptone (Difco 0118-17) (2%) 20 g, Galactose (2%) 20 g] at 30° C. for 15 hours, after which time the cells were diluted 1:20 in fresh YEPG and grown for another 3 hours. The cells were centrifuged and washed 3 times with YEP [For 1 L medium: Bacto yeast extract (Difco 0127-17) (1%) 10 g, Bacto peptone (Difco 0118-17) (2%) 20 g]. Finally, the cells were resuspended in an equal volume of YEP, then diluted at a 1:5 ratio in fresh YEP and incubated at 30° C. for another 3 hours; this last step allowed separation of any aggregates of cells.\nThe water in the wells was discarded, and 100 μl of cells (˜1×10^6 cells/ml) were loaded into inlet wells in columns 1, 4, 7, 10 of the multiwell plate. The plate was then sealed with the 32-channel cover by applying vacuum to the sealing channel, and cell flow started by applying 4 psi air pressure to the loading channel for 10 seconds. Any remaining cells in the wells are discarded, and 300 μl autoclaved ddH2O added to wash the cells, applying 25 psi air pressure to the loading channel for 10 seconds. The remaining water in the wells was again discarded, and 300 μl YEPD [For 1 L medium: Bacto yeast extract (Difco 0127-17) (1%) 10 g, Bacto peptone (Difco 0118-17) (2%) 20 g, Dextrose (2%) 20 g] added, and the cells were washed by applying 2 psi air pressure to the loading channel for 240 seconds. The remaining YEPD in the wells was discarded and 300 μl fresh YEPD added to each well in columns 1, 3, 4, 6, 7, 9, 10, 12. […]\nUsing the DAP system and the high-throughput microfluidic devices, the lifespan of a number of mutants and the effect of several drugs on lifespan were analyzed. […] The total number of cells in each trapping unit was counted and the fluorescent signal was used to determine the number of DAP mother cells loaded in the trapping unit, allowing the lifespan of the mother cells to be determined unambiguously. […]",
  "data": [
    {"smiles": "CN(C)C(=N)N=C(N)N", "note": "[metformin]", "values": [
      {"measurement": "lifespan extension effect", "setting": "range of concentrations tested from 4 μM to 8 mM, data not shown", "value": "not observed"}
    ]},
    {"smiles": "CO[C@H]1C[C@@H]2CC[C@@H](C)[C@@](O)(O2)C(=O)C(=O)N2CCCC[C@H]2C(=O)O[C@H]([C@H](C)C[C@@H]2CC[C@@H](O)[C@H](OC)C2)CC(=O)[C@H](C)/C=C(\\C)[C@@H](O)[C@@H](OC)C(=O)[C@H](C)C[C@H](C)/C=C/C=C/C=C/1C", "note": "[rapamycin]", "values": [
      {"measurement": "lifespan extension", "setting": "100 nM concentration, three independent experiments, p=2.4×10^−10, FIG. 4A", "value": 19, "unit": "%"}
    ]},
    {"smiles": "NCCCCNCCCN", "note": "[spermidine]", "values": [
      {"measurement": "lifespan extension", "setting": "200 JIM concentration, p=6×10^−6, FIG. 4B", "value": 28, "unit": "%"}
    ]}
  ]
}
